Laboratory results from patent US12187722B2, “Small molecule inhibitors of TEAD transcription factors” (The General Hospital Corporation, priority 2019, dated 2025).
“And” between values parts separate entries of the source, which are not always exact repeats. Equal values may be shown once.

Molecular target: TEAD2 (Homo sapiens (Human), UniProt Q15562)
Assay: In vitro palmitoylation (TEAD2 autopalmitoylation, streptavidin blot)
Type: biochemical
Conditions: compound at 10 μM; Table 2
Method in brief: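 Recombinant GST- or His6-TEAD2 (500 ng) preincubated 15 min with compound, then 30 min with 1 μM alkyne palmitoyl-CoA; click-labelled with biotin-azide (1 h, RT). Streptavidin-HRP blot band intensity quantified after SDS-PAGE; inhibition of autopalmitoylation relative to DMSO control.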

Chain of TEAD2 (Q15562 whole entry): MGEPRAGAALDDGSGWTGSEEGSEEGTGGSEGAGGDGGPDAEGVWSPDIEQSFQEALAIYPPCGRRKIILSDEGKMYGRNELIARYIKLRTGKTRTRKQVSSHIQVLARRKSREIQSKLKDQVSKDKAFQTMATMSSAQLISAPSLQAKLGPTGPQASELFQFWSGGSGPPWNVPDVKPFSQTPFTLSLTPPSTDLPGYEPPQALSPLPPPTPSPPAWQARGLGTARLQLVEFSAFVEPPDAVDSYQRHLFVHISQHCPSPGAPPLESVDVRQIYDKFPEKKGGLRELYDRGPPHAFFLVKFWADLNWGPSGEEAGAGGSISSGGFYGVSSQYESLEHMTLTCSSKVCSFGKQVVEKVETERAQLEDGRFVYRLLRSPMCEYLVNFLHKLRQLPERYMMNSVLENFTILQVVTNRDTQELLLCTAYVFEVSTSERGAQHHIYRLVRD

SMILES | % of inhibition of TEAD2 palmitoylation at 10 μM | inhibition at 10 µM [%]
O=C(O)c1cccc(Nc2cc(C(F)(F)F)cc3[nH]c4ccc(C56CC7CC(CC(C7)C5)C6)cc4c23)n1 [Compound 154] | 43% | 58
CN(c1ccc(Oc2ccc(C34CC5CC(CC(C5)C3)C4)cc2)cc1)c1ccccc1C(=O)O [Compound 155] | – | 99
CN(c1ccc(C23CC4CC(CC(C4)C2)C3)cc1)c1ccc(N(C)c2ncccc2C(=O)O)cc1C(F)(F)F [Compound 156] | – | 92
O=C(Nc1ccc(Nc2ccccc2C(=O)O)cc1)c1ccc(C23CC4CC(CC(C4)C2)C3)cc1 [Compound 157] | – | 80
CN(c1ccc(N(C)c2ccc(C34CC5CC(CC(C5)C3)C4)cc2)c(C(F)(F)F)c1)c1ccccc1C(=O)O [Compound 158] | – | 100
CCCCN(CCCC)C(=O)c1ccc(Nc2ccccc2C(=O)O)cc1 [Compound 159] | – | 41
CN(c1ccc(C23CC4CC(CC(C4)C2)C3)cc1)c1ccc(N(C)c2ccccc2C(=O)O)cn1 [Compound 160] | – | 84
CCN(c1ccc(N(CC)c2ccccc2C(=O)O)cc1)c1ccc(C23CC4CC(CC(C4)C2)C3)cc1 [Compound 163] | – | 85
CC(=O)N(c1ccc(N(C(C)=O)c2ccccc2C(=O)O)cc1)c1ccc(C23CC4CC(CC(C4)C2)C3)cc1 [Compound 164] | – | 20
CN(c1ccc(Nc2ccc(C34CC5CC(CC(C5)C3)C4)cc2)cc1)c1ccccc1C(=O)O [Compound 165] | 85% | –
O=C(O)c1ccccc1Nc1ccc(Oc2ccc(C34CC5CC(CC(C5)C3)C4)cc2Cl)cc1 [Compound 166] | – | 98
O=C(NC12CC3CC(CC(C3)C1)C2)c1ccc(Nc2ccccc2C(=O)O)cc1 [Compound 167] | – | 43
CCCCN(CCCC)Cc1ccc(Nc2ccc(Nc3ccccc3C(=O)O)cc2)cc1 [Compound 169] | – | 42
CCCCN(CCCC)c1ccc(NC(=O)c2ccc(Nc3ccccc3C(=O)O)cc2)cc1 [Compound 170] | – | 62
CCN(c1ccc(N(C)c2ccc(C34CC5CC(CC(C5)C3)C4)cc2)cc1)c1ccccc1C(=O)O [Compound 171] | – | 75
CN(c1ccc(Nc2ccccc2C(=O)O)cc1)c1ccc(C23CC4CC(CC(C4)C2)C3)cc1 [Compound 172] | – | 100
Cn1c(-c2ccc(Nc3ccc(C45CC6CC(CC(C6)C4)C5)cc3)cc2)nc2cccc(C(=O)O)c21 [Compound 173] | – | 51
CCCCN(c1ccccc1)c1ccc(Nc2ccc(Nc3ccccc3C(=O)O)cc2)cc1 [Compound 174] | – | 85
CCCCN(CCCC)C(=O)c1ccc(Nc2ccc(Nc3ccccc3C(=O)O)cc2)cc1 [Compound 175] | – | 70
O=C(NC12CC3CC(CC(C3)C1)C2)c1ccc(Nc2ccc(Nc3ccccc3C(=O)O)cc2)cc1 [Compound 176] | 89% | –
CC12CC3CC(C)(C1)CC(c1ccc(Nc4ccc(Nc5ccccc5C(=O)O)cc4)cc1)(C3)C2 [Compound 177] | – | 56
O=C(Nc1ccc(Nc2ncccc2C(=O)O)cc1)Nc1ccc(C23CC4CC(CC(C4)C2)C3)cc1 [Compound 180] | – | 81
O=C(CNc1ccc(Nc2ncccc2C(=O)O)cc1)Nc1ccc(C23CC4CC(CC(C4)C2)C3)cc1 [Compound 181] | 41% | 49

SMILES | % of inhibition of TEAD2 palmitoylation at 10 μM | inhibition at 10 µM [%]
O=C(Nc1ccc(Nc2cccc(C(=O)O)n2)cc1)Nc1ccc(C23CC4CC(CC(C4)C2)C3)cc1 [Compound 182] | – | 54
O=C(Nc1ccc(C23CC4CC(CC(C4)C2)C3)cc1Cl)c1ccc(Nc2ncccc2C(=O)O)cc1 [Compound 183] | 96% | 100
O=C(Cc1ccc(Nc2ncccc2C(=O)O)cc1)Nc1ccc(C23CC4CC(CC(C4)C2)C3)cc1 [Compound 184] | – | 71
O=C(O)c1cccc(Nc2ccc(C(=O)Nc3ccc(C45CC6CC(CC(C6)C4)C5)cc3)cc2)c1 [Compound 185] | 66% and 91% | –
O=C(O)c1ccccc1Nc1ccc(N(c2ccc(C34CC5CC(CC(C5)C3)C4)cc2)C(F)(F)F)cc1 [Compound 186] | – | 76
CCCCN(c1ccccc1)c1ccc(N(C)c2ccc(N(C)c3ccccc3C(=O)O)cc2)cc1 [Compound 187] | – | 57
O=C(O)c1cccnc1Nc1ccc(S(=O)(=O)Nc2ccc(C34CC5CC(CC(C5)C3)C4)cc2)cc1 [Compound 188] | – | 101
O=C(Nc1ccc(Nc2ccccc2C(=O)O)cc1)Nc1ccc(C23CC4CC(CC(C4)C2)C3)cc1 [Compound 189] | – | 34
O=C(O)c1ccccc1Nc1ccc(S(=O)(=O)Nc2ccc(C34CC5CC(CC(C5)C3)C4)cc2)cc1 [Compound 190] | – | 85
CN(c1ccc(C#Cc2ccc(C34CC5CC(CC(C5)C3)C4)cc2)cc1)c1ccccc1C(=O)O [Compound 191] | – | 85
CN(C(=O)c1ccc(Nc2ccccc2C(=O)O)cc1)c1ccc(C23CC4CC(CC(C4)C2)C3)cc1 [Compound 192] | – | 99
CN(c1ccc(Nc2cccc(C(=O)O)n2)cc1)c1ccc(C23CC4CC(CC(C4)C2)C3)cc1 [Compound 193] | – | 86
O=C(O)c1cccc(Nc2ccc(S(=O)(=O)Nc3ccc(C45CC6CC(CC(C6)C4)C5)cc3)cc2)n1 [Compound 194] | – | 20
CCCCN(c1ccccc1)c1ccc(NC(=O)c2ccc(Nc3ccccc3C(=O)O)cc2)cc1 [Compound 195] | – | 0
CN(c1ccc(Oc2ccc(C34CC5CC(CC(C5)C3)C4)cc2)cc1)c1ncccc1C(=O)O [Compound 196] | – | 100
O=C(Nc1ccccc1C(=O)O)c1ccc(Nc2ccc(C34CC5CC(CC(C5)C3)C4)cc2)cc1 [Compound 197] | – | 100
O=C(O)c1cccc(NC(=O)c2ccc(Nc3ccc(C45CC6CC(CC(C6)C4)C5)cc3)cc2)c1 [Compound 198] | – | 99
Cn1c(-c2ccc(Nc3ccc(C45CC6CC(CC(C6)C4)C5)cc3)cc2)nc2c(C(=O)O)cccc21 [Compound 199] | – | 6
CN(c1ccc(N2CC(Oc3ccc(C45CC6CC(CC(C6)C4)C5)cc3)C2)cc1)c1ccccc1C(=O)O [Compound 200] | – | 32
CC12CC3CC(C)(C1)CC(c1ccc(Nc4ccc(Nc5cccc(C(=O)O)n5)cc4)cc1)(C3)C2 [Compound 201] | – | 43
CCCCN(c1ccccc1)c1ccc(Nc2ccc(Nc3cccc(C(=O)O)n3)cc2)cc1 [Compound 202] | – | 49
O=C(O)c1cccc(Nc2ccc(Oc3ccc(C45CC6CC(CC(C6)C4)C5)cc3Cl)cc2)n1 [Compound 203] | – | 95
CN(c1ccc(N(c2ccc(C(=O)O)cn2)c2ccc(C(=O)O)cn2)cc1)c1ccc(C23CC4CC(CC(C4)C2)C3)cc1 [Compound 204] | – | 99

SMILES | % of inhibition of TEAD2 palmitoylation at 10 μM | inhibition at 10 µM [%]
O=C(O)c1ccccc1Nc1ccc(Nc2ccc(OCC34CC5CC(CC(C5)C3)C4)cc2)cc1 [Compound 205] | – | 74
CN(C(=O)c1ccc(Nc2cccc(C(=O)O)n2)cc1)c1ccc(C23CC4CC(CC(C4)C2)C3)cc1 [Compound 206] | – | 52
CN(c1ccc(C23CC4CC(CC(C4)C2)C3)cc1)S(=O)(=O)c1ccc(Nc2ncccc2C(=O)O)cc1 [Compound 207] | – | 99
CN(c1ccc(OCC23CC4CC(CC(C4)C2)C3)cc1)c1ccc(N(C)c2ccccc2C(=O)O)cc1 [Compound 208] | – | 100
CC(C)c1ccccc1-c1ccc(Nc2ccc(Nc3cccc(C(=O)O)n3)cc2)cc1 [Compound 209] | – | 54
Cn1c(-c2cccc(Nc3ccc(C45CC6CC(CC(C6)C4)C5)cc3)c2)nc2cccc(C(=O)O)c21 [Compound 210] | – | 100
CC(C)c1ccccc1-c1ccc(NC(=O)c2ccc(Nc3ccccc3C(=O)O)cc2)cc1 [Compound 211] | – | 67
O=C(Nc1ccc(C23CC4CC(CC(C4)C2)C3)cc1)c1ccc(Oc2cccc(C(=O)O)n2)cc1 [Compound 212] | – | 77
O=C(Cc1ccc(Nc2ccc(C34CC5CC(CC(C5)C3)C4)cc2)cc1)Nc1ccccc1C(=O)O [Compound 213] | – | 90
O=C(Nc1ccc(C23CC4CC(CC(C4)C2)C3)cc1)c1cccc(Nc2ccccc2C(=O)O)c1 [Compound 214] | 73% | 88
O=C(Nc1ccc(C23CC4CC(CC(C4)C2)C3)cc1)c1ccc(Oc2ccccc2C(=O)O)cc1 [Compound 215] | – | 87
CC12CC3CC(C)(C1)CC(c1ccc(NC(=O)c4ccc(Nc5ccccc5C(=O)O)cc4)cc1)(C3)C2 [Compound 216] | – | 89
O=C(Nc1ncccc1C(=O)O)c1ccc(Nc2ccc(C34CC5CC(CC(C5)C3)C4)cc2)cc1 [Compound 217] | – | 55
CN(c1ccc(N2CCN(c3ccc(C45CC6CC(CC(C6)C4)C5)cc3)CC2)cc1)c1ccccc1C(=O)O [Compound 218] | – | 0
O=C(NC12CC3CC(CC(C3)C1)C2)c1ccc(Nc2ccc(Nc3cccc(C(=O)O)n3)cc2)cc1 [Compound 219] | – | 0
O=C(CCc1ccc(Nc2ccccc2C(=O)O)cc1)Nc1ccc(C23CC4CC(CC(C4)C2)C3)cc1 [Compound 220] | – | 10
CN(C(=O)c1ccc(Nc2ccc(C34CC5CC(CC(C5)C3)C4)cc2)cc1)c1ccccc1C(=O)O [Compound 221] | – | 61
CC12CC3CC(C)(C1)CC(c1ccc(NC(=O)c4cccc(Nc5ccccc5C(=O)O)c4)cc1)(C3)C2 [Compound 222] | – | 45
O=C(O)c1ccccc1NS(=O)(=O)c1ccc(Nc2ccc(C34CC5CC(CC(C5)C3)C4)cc2Cl)cc1 [Compound 223] | – | 100
CC(C)c1ccccc1-c1ccc(NC(=O)c2cccc(Nc3ccccc3C(=O)O)c2)cc1 [Compound 224] | – | 81
O=C(Nc1ccc(C23CC4CC(CC(C4)C2)C3)cc1)c1ccc(C(=O)Nc2ccccc2C(=O)O)cc1 [Compound 225] | – | 84
